Test results: patent publication US10941157B2, “Pesticidal compositions and uses thereof” (Gilead Apollo, LLC, priority 2015, dated 2021)
Values after ≈ are worked out from the molar mass of the structure shown.

Legend:
Type in all cases: cell-based
[1] = test system: Botrtyis cinerea (Bc); experiment: In vitro pathogen growth inhibition assay, Bc; conditions: 48 h, ≥90% inhibition; 48 hours vs 2% DMSO control; read-out: Compound Concentration (ppm) sufficient for ≥90% inhibition of growth, Bc
Summary of the method: (§1)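 Value reported is the compound concentration reaching ≥90% growth inhibition, from OD readings at 24 and 48 h after blank subtraction, confirmed visually. Inoculum was spores diluted in 17% V8 medium, except Rs, using 1.5 mm mycelial plugs in ¼ PDB; actual compound concentration corrected via OD600.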

[2] = test system: Collectotrichum graminicola (Cg); experiment: In vitro pathogen growth inhibition assay, Cg; conditions: 48 h, ≥90% inhibition; 48 hours vs 2% DMSO control; read-out: Compound Concentration (ppm) sufficient for ≥90% inhibition of growth, Cg
Summary of the method: as §1

[3] = test system: Diplodia maydis (Dm); experiment: In vitro pathogen growth inhibition assay, Dm; conditions: Stenocarpella maydis, 48 h, ≥90% inhibition; 48 hours vs 2% DMSO control; read-out: Compound Concentration (ppm) sufficient for ≥90% inhibition of growth, Dm
Summary of the method: (§2)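 Spores in 17% V8 liquid medium, or 1.5 mm Rs mycelial plugs in ¼ PDB, incubated with compound; final concentration checked by OD600 for precipitation. OD readings at 24 and 48 h, blank-subtracted, plus visual ratings; value is concentration giving ≥90% growth inhibition.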

[4] = test system: Fusarium moniliforme (Fm); experiment: In vitro pathogen growth inhibition assay, Fm; conditions: Fusarium verticillioides; ≥90% inhibition; 48 hours vs 2% DMSO control; read-out: Compound Concentration (ppm) sufficient for ≥90% inhibition of growth, Fm
Summary of the method: as §1

[5] = test system: Fusarium virguliforme (Fv); experiment: In vitro pathogen growth inhibition assay, Fv; conditions: ≥90% inhibition, 48 hours vs 2% DMSO control, read-out: Compound Concentration (ppm) sufficient for ≥90% inhibition of growth, Fv
Summary of the method: as §2

[6] = test system: Phytophthora capsici (Pc); experiment: In vitro pathogen growth inhibition assay, Pc; conditions: 48 h, ≥90% inhibition, 48 hours vs 2% DMSO control, read-out: Compound Concentration (ppm) sufficient for ≥90% inhibition of growth, Pc
Summary of the method: as §2

[7] = test system: Rhizoctonia solani (Rs); experiment: In vitro pathogen growth inhibition assay, Rs (mycelial plugs); conditions: Rhizoctonia solani, 48 h, ≥90% inhibition; mycelial plugs; 48 hours vs 2% DMSO control; read-out: Compound Concentration (ppm) sufficient for ≥90% inhibition of growth, Rs
Summary of the method: as §2

[8] = test system: Septoria tritici (St); experiment: In vitro pathogen growth inhibition assay, St; conditions: Zymoseptoria tritici, 48 h, ≥90% inhibition; 48 hours vs 2% DMSO control; read-out: Compound Concentration (ppm) sufficient for ≥90% inhibition of growth, St
Summary of the method: as §1

[9] = test system: Saccharomyces cerevisiae (Sc); experiment: Yeast growth inhibition assay; conditions: Saccharomyces cerevisiae, ≥75% inhibition, read-out: Compound Concentration (ppm) sufficient for ≥75% inhibition, Sc
Experimental: Both tables list the concentration of each compound that was sufficient to ≥90% inhibition of growth for each of the fungal pathogens listed above. In addition, some of compounds were tested in a yeast growth inhibition assay for Saccharomyces cerevisiae (Sc). Table 2 lists the concentration of the tested compound that was sufficient to ≥75% inhibition of Saccharomyces cerevisiae (Sc).

Row | SMILES | IC90 [1] | IC90 [2] | IC90 [3] | IC90 [4] | IC90 [5] | IC90 [6] | IC90 [7] | IC90 [8] | IC75 [9]
1 | COc1ccc(F)cc1[C@H](Cn1c(=O)n(C(C)(C)C(N)=O)c(=O)c2c(C)c(-n3nccn3)sc21)OC1CCOCC1 [Compound I-102] | 2 µg/mL (≈ 3.41 µM) | 2 µg/mL (≈ 3.41 µM) | 2 µg/mL (≈ 3.41 µM) | 0.4 µg/mL (≈ 0.682 µM) | 2 µg/mL (≈ 3.41 µM) | 10 µg/mL (≈ 17 µM) | ≥ 2 µg/mL | ≥ 50 µg/mL | 1.2 µg/mL (≈ 2.05 µM)
2 | COc1ccccc1[C@H](Cn1c(=O)n(C(C)(C)C(N)=O)c(=O)c2c(C)c(-c3ncco3)sc21)OC1CCC(=O)CC1 [Compound I-154] | 2 µg/mL (≈ 3.44 µM) | 50 µg/mL (≈ 86.1 µM) | 10 µg/mL (≈ 17.2 µM) | 2 µg/mL (≈ 3.44 µM) | 50 µg/mL (≈ 86.1 µM) | > 50 µg/mL | > 50 µg/mL | > 50 µg/mL | 3.7 µg/mL (≈ 6.37 µM)
3 | CCOC(=O)c1sc2c(c1C)c(=O)n(C(C)(C)C(=O)O)c(=O)n2C[C@H](OC(C)C)c1ccccc1OC [Compound I-153] | 2 µg/mL (≈ 3.76 µM) | > 50 µg/mL | 50 µg/mL (≈ 93.9 µM) | 2 µg/mL (≈ 3.76 µM) | > 50 µg/mL | > 50 µg/mL | 50 µg/mL (≈ 93.9 µM) | > 50 µg/mL | > 33.3 µg/mL
4 | COc1ccccc1[C@H](Cn1c(=O)n(C(C)(C)C(=O)NC(C)C)c(=O)c2c(C)c(-c3ncco3)sc21)O[C@H]1CC[C@@H](O)CC1 [Compound I-012] | 0.4 µg/mL (≈ 0.64 µM) | 10 µg/mL (≈ 16 µM) | 2 µg/mL (≈ 3.2 µM) | 0.08 µg/mL (≈ 0.128 µM) | 2 µg/mL (≈ 3.2 µM) | > 50 µg/mL | 50 µg/mL (≈ 80 µM) | ≥ 10 µg/mL | 0.14 µg/mL (≈ 0.224 µM)
